Results published in patent US20040116530A1, “Tissue fibrosis inhibitors” (priority 2001, published 2004).
Marks after values point to notes of the source that are not given here.

Columns and labels:
acute hepatitis = settings: literature statement; cited from earlier work
[1] = tested on: dimethylnitrosamine-induced rat hepatitis models; assay: Dimethylnitrosamine-induced rat hepatitis model (hepatic injury and fibrogenesis); assay type: in vivo; settings: for Hepatic Fibrogenesis Score: n=15, histology (azan stain), grade 0-4
Protocol: Dimethylnitrosamine was frequently administered to rats for 3 weeks to thereby make the rats have irreversible hepatic fibrogenesis. The rats are the test models in this experiment. As the index of hepatic injury and fibrogenesis, the hepatic hydroxyproline was measured in every rat and the liver tissue of each rat was pathologically analyzed. Based on the data, the tissue fibrogenesis-inhibiting effect of the prostaglandin-I2 agonist was evaluated.
10 mg/kg of dimethylnitrosamine was intra-abdominally administered to rats everyday in continuous 3 days a week, over a period of three weeks. 5 days after the final administration of dimethylnitrosamine, the liver was taken out of each rat and its weight was measured. Then, distal potion of the left lobe of the liver was cut out. A part of it was used for histologic analysis^*1) for hepatic fibrogenesis; and another part thereof was used for determination of hepatic hydroxyproline content^*2).
The test compound was orally administered to the rats from the initial dimethylnitrosamine administration to one day before the blood collection from the rats. On the day for dimethylnitrosamine administration, the test compound was administered 12 hours after the dimethylnitrosamine administration; and on the other day, it was administered once a day. The effect of the test compound for curing hepatic injury and fibrogenesis was investigated. The test compound was administered to three groups −1 mg/kg/day administration group (n =15), 3.2 mg/kg/day administration group (n=15), and 10 mg/kg/day administration group (n=15). To the comparative control group, 0 mg/kg administration group (n=15), a solvent was administered in place of the test compound. To confirm the presentation of hepatic fibrogenesis through
dimethylnitrosamine administration, a solvent in place of dimethylnitrosamine was administered to a no-treatment group (n=5).
A distal potion of the left lobe of the liver was fixed in 10% neutral buffer formalin liquid, then stained with azan to prepare an anatomicopathological specimen, on which the degree of fibrogenesis was classified into 5 grades according to the fibrogenesis criteria mentioned below.
Grade 0: No fibrogenesis was found.
Grade 1: Light fibrogenesis was found only locally in and around the portal vein and the central vein.
Grade 2: The fibrogenesis in and around the portal vein and the central vein extended to the lobe.
Grade 4: High-level fibrogenesis was found along with pseudo lobe formation.
A part of the left lobe of the liver that had been frozen at −80° C. was thawed, and 1 ml/500 mg-liver weight of phosphate balanced salt buffer (PBS(−), Dulbecco PBS(−)) was added to it. Then, this was homogenized in Polytron (power control 7, type; PT 10 20 350D, by KINEMATICA) for 1 minute. 4 ml of the thus-homogenized liquid was transferred into a screw cap-equipped centrifuge (by PYREX), and 0.4 ml of 9M HCl was added to it and incubated at120° C. for 8 hours (in DRYING STERILIZER SG-62, by YAMATO). Next, this was further incubated at 4° C. overnight, then neutralized with 6 M KOH and 9M HCl, and then filtered (pore size 0.45 μm, MILLIPORE). 1 ml of chloramine-T^(**) was added to 100 μl of the filtrate or a standard liquid^(*), and left at room temperature for 20 minutes. 1 ml of Ehrich solution^(***) was added to it, and incubated at 65° C. for 40minutes. The reaction was stopped in ice-water, and then the absorbance (OD560) of the reaction liquid was measured with an spectrophotometer UV2100PC (UV-VIS SCANNING SPECTRO PHOTOMETER, by SHIMADZU).

[2] = tested on: bleomycin-induced mouse fibrotic lung models; assay: Bleomycin-induced lung fibrosis model in mice; assay type: in vivo
Protocol: Bleomycin was frequently administered to mice for 10 days to thereby make the mice fibrotic lung. The mice are the test models in this experiment. As the index of lung fibrogenesis, the lung hydroxyproline was measured in every mouse, from which the effect of the prostaglandin-I2 agonist for inhibiting lung fibrogenesis was investigated.
1. 10 mg/kg of bleomycin that had been dissolved in saline to have a concentration of 1 mg/ml was intraperitoneally administered to 8-weeks-old male C57BL/6N mice, once a day, everyday for continuous 10 days. Saline alone was intraperitoneally administered to the negative control group.
2. To the animals of the positive control group and the test compound-administered group, 10 ml/kg of pure water or an aqueous solution of the test compound (32 mg/kg) was orally administered everyday during the test period from the start of the bleomycin administration.
3. 4 weeks after the start of the bleomycin administration, the animals were killed in a mode of euthanasia, the lung was taken out, its wet weight was measured, and the lung was then freesed at −30° C.
4. […]
5. The hydrolyzed sample was neutralized with 6 mols/liter of potassium hydroxide, and the hydroxyproline content of the sample was measured, from which the lung hydroxyproline content was derived. […]

[3] = test compound-administered groups (1, 3.2, 10 mg/kg/day oral) vs dimethylnitrosamine control, figure only

| SMILES | hepatic coagulation necrosis in acute hepatitis (acute hepatitis) | Hepatic Fibrogenesis Score ([1]; 1 mg/kg/day oral, control (0 mg/kg) 2.1 ± 0.2) | Hepatic Fibrogenesis Score ([1]; 3.2 mg/kg/day oral, p < 0.05 vs. 0 mg/kg (2.1 ± 0.2)) | Hepatic Fibrogenesis Score ([1]; 10 mg/kg/day oral, p < 0.05 vs. 0 mg/kg (2.1 ± 0.2)) | hepatic fibrogenesis (histology), in words ([1]; test compound-administered groups (1, 3.2, 10 mg/kg/day oral) vs dimethylnitrosamine control) | hepatic hydroxyproline content (hepatic collagen content) [1, 3] | liver weight reduction [1, 3] | Hydroxyproline Content (lung) ([2]; 32 mg/kg oral daily, 4 weeks after start of bleomycin, n=15, positive control 398.19 ± 15.483, negative control 200.03 ± 6.9707, p < 0.01 vs positive control) [ug/lung] | increase in the lung hydroxyproline content caused by bleomycin administration ([2]; oral administration of 32 mg/kg) |
| --- | --- | --- | --- | --- | --- | --- | --- | --- | --- |
| CC#CCC(C)[C@H](O)/C=C/[C@@H]1[C@H]2c3cccc(CCCC(=O)O)c3O[C@H]2C[C@H]1O (mixture of isomers) [beraprost] | inhibits hepatic coagulation necrosis |  |  |  |  |  |  |  |  |
| O=C(O)COc1cccc2c1CC[C@](O)(COC(=O)N(c1ccccc1)c1ccccc1)C2 [Test compound, [[(2R)-5-(carboxymethoxy)-2-hydroxy-1,2,3,4-tetrahydronaphth-2-yl]methyl]N,N-diphenylcarbamate] |  | 1.7 ± 0.2 | 1.3 ± 0.2* | 1.3 ± 0.2* | inhibited | decreased | suppressed | 308.37 ± 19.403 | significantly inhibited |
